# Experimental data taken from US8258140B2 (Astrazeneca AB, priority 2009, dated 2012).
# Target: T1, Androgen Receptor (AR) in the LNCaP prostate carcinoma cell line (Homo sapiens, UniProt P10275, T878A)
# T1 construct: cell based immuno-fluorescence assay using the LNCaP prostate epithelial cell line; host or cells: LNCaP clone FGC
# T1 sequence (P10275 1-920 T878A): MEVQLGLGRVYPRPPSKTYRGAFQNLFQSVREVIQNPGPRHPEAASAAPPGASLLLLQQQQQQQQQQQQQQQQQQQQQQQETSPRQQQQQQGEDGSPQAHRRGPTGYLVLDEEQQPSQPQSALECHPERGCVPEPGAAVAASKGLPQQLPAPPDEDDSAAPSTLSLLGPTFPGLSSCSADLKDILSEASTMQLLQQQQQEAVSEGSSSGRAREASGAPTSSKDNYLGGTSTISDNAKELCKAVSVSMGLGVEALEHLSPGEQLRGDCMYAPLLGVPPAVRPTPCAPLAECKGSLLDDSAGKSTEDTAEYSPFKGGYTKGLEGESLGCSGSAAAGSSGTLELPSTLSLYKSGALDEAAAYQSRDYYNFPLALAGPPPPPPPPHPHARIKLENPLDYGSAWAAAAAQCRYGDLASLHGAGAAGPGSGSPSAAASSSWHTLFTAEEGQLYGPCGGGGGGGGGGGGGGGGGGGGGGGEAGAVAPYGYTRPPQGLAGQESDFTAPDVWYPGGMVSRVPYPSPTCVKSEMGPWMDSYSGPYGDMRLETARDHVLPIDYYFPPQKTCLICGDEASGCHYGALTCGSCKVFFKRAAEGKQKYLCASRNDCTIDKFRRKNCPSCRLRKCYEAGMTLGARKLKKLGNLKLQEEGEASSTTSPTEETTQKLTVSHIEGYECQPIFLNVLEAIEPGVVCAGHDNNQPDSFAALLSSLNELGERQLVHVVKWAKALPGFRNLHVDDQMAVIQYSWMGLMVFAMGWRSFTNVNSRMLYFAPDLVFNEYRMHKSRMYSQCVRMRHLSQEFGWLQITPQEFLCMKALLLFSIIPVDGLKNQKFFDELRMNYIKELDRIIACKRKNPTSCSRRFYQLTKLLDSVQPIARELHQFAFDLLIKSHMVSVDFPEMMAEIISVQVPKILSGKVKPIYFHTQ
# Test: LNCaP Androgen Receptor Down-Regulation Cell Assay (immunofluorescence end point)
# Format: cell-based
# Conditions: LNCaP cells, compound incubation 20-22 hours, concentration giving 50% reduction of the AR signal
# Procedure: The ability of compounds to reduce Androgen Receptor (AR) numbers was assessed in a cell based immuno-fluorescence assay using the LNCaP prostate epithelial cell line.
# This immunofluorescence end point assay measures the ability of a test compound to down-regulate and reduce measured levels of the AR in the LNCaP prostate carcinoma cell line (LNCaP clone FGC (CRL-1740) obtained from the American Type Culture Collection (ATCC)).
# LNCaP cells were cultured in Growth Medium (phenol red free Roswell Park Memorial Institute (RPMI) 1640 (Invitrogen Code no. 11835-063) containing 2 mM L-Glutamine (Invitrogen Code no. 25030-024) and 1% (v/v) Penicillin/Streptomycin (10000 units/ml Penicillin and 10000 μg/ml of Streptomycin utilising penicillin G (sodium salt) and streptomycin sulphate: prepared in normal saline, Invitrogen Code no. 15140122) and 10% (v/v) foetal bovine serum (FBS)) in a 5% CO2 air incubator at 37° C. Cells for assay were harvested from T175 stock flasks by washing once in PBS (phosphate buffered saline, pH 7.4) (Invitrogen Code no. 14190-094) and harvested using 5 mls of 1× Trypsin/ethylaminediaminetetraacetic acid (EDTA) (10× Trypsin-EDTA, 5.0 g/L Trypsin, 2.0 g/L of EDTA.4Na and 8.5 g/L of NaCl, without Phenol Red, Invitrogen Code no. 15400-054) diluted in PBS solution. A 5 ml volume of Growth Medium was added to each flask (as above except that 5% (v/v) charcoal stripped FBS (HyClone Code no. SH30068.03) was included instead of 10% (v/v) FBS). Cells were syringed at least twice using a sterile 18 G×1.5″ (1.2×40 mm) broad gauge needle and cell density was measured using a haemocytometer. Cells were further diluted in Growth Medium plus 5% (v/v) charcoal stripped FBS and seeded at a density of 6.5×10^3 cells per well (in 90 ul) into transparent, black, tissue culture treated 96 well plates (Packard, No. 6005182).
# Test data reported herein was generated using two different compounds preparation and dosing methods. In method (1) a 10 mM compound stock solution in 100% (v/v) DMSO was serially diluted in 4-fold steps in 100% (v/v) DMSO using a Thermo Scientific Matrix SerialMate. The diluted compounds were then further diluted 1 in 30 in assay media using a Thermo Scientific Matrix PlateMate and a 10 μl aliquot of this dilution was dosed to cells manually using a multi-channel pipette. In method (2) starting with a 10 mM compound stock solution, the Labcyte Echo 550 was used to generate a compound concentration response set diluted in 30 μl of assay media. The Echo 550 is a liquid handler that uses acoustic technology to perform direct microplate-to-microplate transfers of DMSO compound solutions. The system can be programmed to transfer volumes as low as 2.5 nL in multiple increments between microplates and in so doing generates a serial dilution of compound which is then back-filled to normalise the DMSO concentration across the dilution range. A 10 μl volume of diluted compound is then dosed to cells using a Thermo Scientific Matrix PlateMate.
# Plates were incubated overnight at 37° C., 5% CO2. Wells were then dosed with compound prepared by one of the 2 methods above and further incubated for 20-22 hours at 37° C., 5% CO2. Plates were fixed by the addition of 20 μl of 10% (v/v) formaldehyde solution (in PBS) to each well (final formaldehyde conc.=1.67% (v/v)) and left at room temperature for 10 mins. This fixative solution was removed and cells were washed with 250 μl of PBS/0.05% (v/v) Tween 20 (PBST) using an automated plate washer. This process was then repeated twice more.
# Immunostaining was performed at room temperature. Cells were permeabilised by the addition of 35 μl of PBS containing 0.5% Tween 20 and incubated for 1 hour at room temperature. Permeabilisation solution was removed and cells were washed with 250 μl of PBST using an automated plate washer. This process was then repeated twice more. […]
row,Molecule,IC50 [µM]
1,"6-(4-{4-[2-(1H-imidazol-1-yl)ethoxy]phenyl}piperazin-1-yl)-3-(trifluoromethyl)-7,8-dihydro[1,2,4]triazolo[4,3-b]pyridazine [Example 38]",7.8
2,"6-(4-{4-[2-(1H-imidazol-1-yl)ethoxy]phenyl}piperidin-1-yl)-3-(trifluoromethyl)-7,8-dihydro[1,2,4]triazolo[4,3-b]pyridazine [Example 41]",2.9
3,"Fc1ccc(CN2CCN(C3=Nn4c(nnc4C(F)(F)F)CC3)CC2)cc1 [Example 1, 6-[4-(4-fluorobenzyl)piperazin-1-yl]-3-(trifluoromethyl)-7,8-dihydro[1,2,4]triazolo[4,3-b]pyridazine]",6
4,"Fc1cccc(CN2CCN(C3=Nn4c(nnc4C(F)(F)F)CC3)CC2)c1 [Example 6, 6-[4-(3-fluorobenzyl)piperazin-1-yl]-3-(trifluoromethyl)-7,8-dihydro[1,2,4]triazolo[4,3-b]pyridazine]",4
5,"Fc1cccc(CN2CCN(C3=Nn4c(nnc4C(F)(F)F)CC3)CC2)c1F [Example 9, 6-[4-(2,3-difluorobenzyl)piperazin-1-yl]-3-(trifluoromethyl)-7,8-dihydro[1,2,4]triazolo[4,3-b]pyridazine]",4.1
6,"FC(F)(F)c1nnc2n1N=C(N1CCN(Cc3c[nH]c4ccccc34)CC1)CC2 [Example 11, 6-[4-(1H-indol-3-ylmethyl)piperazin-1-yl]-3-(trifluoromethyl)-7,8-dihydro[1,2,4]triazolo[4,3-b]pyridazine]",8.6
7,"Fc1ccc2[nH]cc(CN3CCN(C4=Nn5c(nnc5C(F)(F)F)CC4)CC3)c2c1 [Example 12, 6-{4-[(5-fluoro-1H-indol-3-yl)methyl]piperazin-1-yl}-3-(trifluoromethyl)-7,8-dihydro[1,2,4]triazolo[4,3-b]pyridazine]",3.4
8,"N#Cc1ccc2[nH]cc(CN3CCN(C4=Nn5c(nnc5C(F)(F)F)CC4)CC3)c2c1 [Example 13, 3-({4-[3-(trifluoromethyl)-7,8-dihydro[1,2,4]triazolo[4,3-b]pyridazin-6-yl]piperazin-1-yl}methyl)-1H-indole-5-carbonitrile]",> 11
9,"OC1(c2ccc(F)cc2)CCN(C2=Nn3c(nnc3C(F)(F)F)CC2)CC1 [Example 14, 4-(4-fluorophenyl)-1-[3-(trifluoromethyl)-7,8-dihydro[1,2,4]triazolo[4,3-b]pyridazin-6-yl]piperidin-4-ol]",> 15
10,"FC(F)(F)c1nnc2n1N=C(N1CC=C(c3c[nH]c4ncccc34)CC1)CC2 [Example 17, 6-[4-(1H-pyrrolo[2,3-b]pyridin-3-yl)-3,6-dihydropyridin-1(2H)-yl]-3-(trifluoromethyl)-7,8-dihydro[1,2,4]triazolo[4,3-b]pyridazine]",4.4
11,"FC(F)(F)c1nnc2n1N=C(N1CCC(c3c[nH]c4ncccc34)CC1)CC2 [Example 18, 6-[4-(1H-pyrrolo[2,3-b]pyridin-3-yl)piperidin-1-yl]-3-(trifluoromethyl)-7,8-dihydro[1,2,4]triazolo[4,3-b]pyridazine]",3.2

# Now from value to molecule:
row,IC50 [µM],Molecule
1,0.18,"CC(=O)N1CCN([C@H](C)COc2ccc(C3CCN(C4=Nn5c(nnc5C(F)(F)F)CC4)CC3)cc2)CC1 (single isomer, unassigned) [Example 53]"
2,0.14,"CC(=O)N1CCN([C@@H](C)COc2ccc(C3CCN(C4=Nn5c(nnc5C(F)(F)F)CC4)CC3)cc2)CC1 (single isomer, unassigned) [Example 54]"
3,0.18,"C[C@@H](COc1ccc(C2CCN(C3=Nn4c(nnc4C(F)(F)F)CC3)CC2)cc1)N1CCN(C)C(=O)C1 (single isomer, unassigned) [Example 55]"
4,0.38,"C[C@H](COc1ccc(C2CCN(C3=Nn4c(nnc4C(F)(F)F)CC3)CC2)cc1)N1CCN(C)C(=O)C1 (single isomer, unassigned) [Example 56]"
5,3.2,"FC(F)(F)c1nnc2n1N=C(N1CC=C(c3c[nH]c4ccccc34)CC1)CC2 [Example 2, 6-[4-(1H-indol-3-yl)-5,6-dihydropyridin-1(2H)-yl]-3-(trifluoromethyl)-7,8-dihydro-[1,2,4]triazolo[4,3-b]pyridazine]"
6,1.2,"FC(F)(F)c1nnc2n1N=C(N1CCC(c3c[nH]c4ccccc34)CC1)CC2 [Example 3, 6-[4-(1H-indol-3-yl)piperidin-1-yl]-3-(trifluoromethyl)-7,8-dihydro[1,2,4]triazolo[4,3-b]pyridazine]"
7,2.9,"FC(F)(F)c1nnc2n1N=C(N1CCN(Cc3cccc(Cl)c3)CC1)CC2 [Example 7, 6-[4-(3-chlorobenzyl)piperazin-1-yl]-3-(trifluoromethyl)-7,8-dihydro[1,2,4]triazolo[4,3-b]pyridazine]"
8,2.7,"FC(F)(F)c1cccc(CN2CCN(C3=Nn4c(nnc4C(F)(F)F)CC3)CC2)c1 [Example 8, 3-(trifluoromethyl)-6-{4-[3-(trifluoromethyl)benzyl]piperazin-1-yl}-7,8-dihydro[1,2,4]triazolo[4,3-b]pyridazine]"
9,1,"Fc1ccc(C(F)F)c(CN2CCN(C3=Nn4c(nnc4C(F)(F)F)CC3)CC2)c1 [Example 10, 6-[4-[2-(difluoromethyl)-5-fluorobenzyl]piperazin-1-yl]-3-(trifluoromethyl)-7,8-dihydro[1,2,4]triazolo[4,3-b]pyridazine]"
10,0.94,"Cn1nccc1CCOc1ccc(C2CCN(C3=Nn4c(nnc4C(F)(F)F)CC3)CC2)cc1 [Example 15, 6-[4-[4-[2-(1-methyl-1H-pyrazol-5-yl)ethoxy]phenyl]piperidin-1-yl]-3-(trifluoromethyl)-7,8-dihydro[1,2,4]triazolo[4,3-b]pyridazine]"
11,3.2,"Cn1nccc1CCOc1ccc(N2CCN(C3=Nn4c(nnc4C(F)(F)F)CC3)CC2)cc1 [Example 16, 6-[4-[4-[2-(1-methyl-1H-pyrazol-5-yl)ethoxy]phenyl]piperazin-1-yl]-3-(trifluoromethyl)-7,8-dihydro[1,2,4]triazolo[4,3-b]pyridazine]"
